From patent publication US8450522B2, “Conformationally constrained carboxylic acid derivatives useful for treating metabolic disorders” (Amgen Inc., priority 2008, dated 2013)
Entries after “also recorded” stand apart in the source; their conditions may differ.

Tests used:
GPR40 [1] = molecular target: T1, GPR40 (Homo sapiens, UniProt O14842); assay: Competition binding assay on A9 membranes expressing GPR40; parameters: expressed in transfected cells; host or cells: membranes of A9 cells expressing GPR40; settings: 5 nM [3H] labeled Comparative Compound 1, 4 hours at room temperature
Protocol: Competition binding assays were performed on A9 membranes expressing GPR40.

GPR40 [2] = molecular target: T1, GPR40; assay: Cell-based aequorin assay (CHO cells stably transfected with GPR40 and aequorin); parameters: expressed in transfected cells; settings: activation of human GPR40, CHO cells, 0.01% HSA
GPR40 [3] = molecular target: T1, GPR40; assay: Inositol phosphate accumulation assay (A9 cell line stably transfected with GPR40); type: cell-based; parameters: expressed in transfected cells; settings: human GPR40, A9_GPR40 cells, 1 hour at 37° C.; read-out: IP3 EC50 (inositol phosphate assay data)
Protocol: An A9 cell line stably transfected with GPR40 (A9_GPR40) was used in IP accumulation assays. A9_GPR40 cells were plated in 96-well plates containing 20,000 cells/well in DMEM containing 10% FBS. After the cells attached to the well surface, the media was replaced with inositol free DMEM containing 10% dialyzed FBS and 1 μCi, mL ^3H-inositol and incubated for 16 hours. Compounds were diluted in HBSS/10 mM LiCl containing a desired amount of HSA and added directly to cells. Following 1 hour incubation at 37° C., the media was replaced with 100 μl of 20 mM formic acid to quench the reaction. 50 μL of the extract was then added to 100 μL of SPA beads, incubated overnight, and measured on a TopCount the following day.

T1 sequence (O14842 whole entry): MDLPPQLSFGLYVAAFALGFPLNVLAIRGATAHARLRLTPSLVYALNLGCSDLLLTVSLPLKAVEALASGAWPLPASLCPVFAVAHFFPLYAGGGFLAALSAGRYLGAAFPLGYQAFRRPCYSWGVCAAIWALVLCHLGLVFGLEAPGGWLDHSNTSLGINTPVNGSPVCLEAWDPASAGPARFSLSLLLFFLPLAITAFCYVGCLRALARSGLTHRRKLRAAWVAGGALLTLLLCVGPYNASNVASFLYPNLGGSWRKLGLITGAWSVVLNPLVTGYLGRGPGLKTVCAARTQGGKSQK

Row | Structure (SMILES) | displacement of 3H-labeled Comparative Compound 1 (GPR40 [1]) | EC50 (GPR40 [2]) [nM] | EC50 (GPR40 [3]) [nM] | effect on binding of the radioligand (3H-labeled Comparative Compound 1) to the receptor (GPR40 [1])
1 | COc1ccc(F)c(-c2ccc(COc3ccc4c(c3)[C@@H](CC(=O)O)CC4)cc2C(C)(C)C)c1 (single isomer, unassigned) [Example 1, ((1R)-6-(((2-(1,1-Dimethylethyl)-2′-fluoro-5′-(methyloxy)-1,1′-biphenyl-4-yl)methyl)oxy)-2,3-dihydro-1H-inden-1-yl)acetic acid or ((1S)-6-(((2-(1,1-Dimethylethyl)-2′-fluoro-5′-(methyloxy)-1,1′-biphenyl-4-yl)methyl)oxy)-2,3-dihydro-1H-inden-1-yl)acetic acid] | did not displace | 1000 to 10000 | – | enhanced the total binding; also recorded: enhanced the binding of the radioligand
2 | COc1cc(-c2ccc(COc3ccc4c(c3F)[C@@](C)(CC(=O)O)CC4)cc2[C@@H](OC)C(C)(C)C)c(F)cn1 (single isomer, unassigned) [Example 39, {(R)-7-Fluoro-6-[4-(5-fluoro-2-methoxy-pyridin-4-yl)-3-((S)-1-methoxy-2,2-dimethyl-propyl)-benzyloxy]-1-methyl-indan-1-yl}-acetic acid or stereoisomer thereof] | – | 100 to 1000 | 10 to 100 | –
3 | COc1ccc(F)c(-c2ccc(COc3ccc4c(c3)[C@@H](CC(=O)O)CC4)cc2[C@H]2CCCC2(C)C)c1 (single isomer, unassigned) [Example 22] | – | 100 to 1000 | 10 to 100 | –
4 | COc1ccc(F)c(-c2ccc(COc3ccc4c(c3)[C@H]([C@@H](C)C(=O)O)CC4)cc2C2=CCCC2(C)C)c1 [Example 14] | – | 100 to 1000 | 10 to 100 | –
5 | COc1cc(-c2ccc(COc3ccc4c(c3)[C@@](C)(CC(=O)O)CC4)cc2[C@@H](OC)C(C)(C)C)c(F)cn1 (single isomer, unassigned) [Example 37, 2-((1R)-6-(4-(5-Fluoro-2-methoxypyridin-4-yl)-3-((S)-1-methoxy-2,2-dimethylpropyl)benzyloxy)-1-methyl-2,3-dihydro-1H-inden-1-yl)acetic acid or 2-((1R)-6-(4-(5-fluoro-2-methoxypyridin-4-yl)-3-(R)-1-methoxy-2,2-dimethylpropyl)benzyloxy)-1-methyl-2,3-dihydro-1H-inden-1-yl)acetic acid] | – | 100 to 1000 | < 10 | –
6 | COc1ccc(F)c(-c2ccc(COc3ccc4c(c3)[C@@H](C(C)(C)C(=O)O)CC4)cc2[C@H]2CCCC2(C)C)c1 (single isomer, unassigned) [Example 21] | – | 100 to 1000 | 10 to 100 | –

Further lines, with some results ahead:

Row | displacement of 3H-labeled Comparative Compound 1 (GPR40 [1]) | EC50 (GPR40 [2]) [nM] | EC50 (GPR40 [3]) [nM] | Structure (SMILES) | effect on binding of the radioligand (3H-labeled Comparative Compound 1) to the receptor (GPR40 [1])
7 | – | 100 to 1000 | 10 to 100 | COc1cc(-c2ccc(COc3ccc4c(c3)[C@@H](CC(=O)O)CCC4)cc2[C@H]2CCCC2(C)C)c(F)cn1 (single isomer, unassigned) [Example 46] | –
8 | – | 100 to 1000 | 100 to 1000 | COc1cc(-c2ccc(COc3ccc4c(c3F)C(C)(CC(=O)O)CC4)cc2C2CCCC2(C)C)c(F)cn1 [Example 40, {(S)-6-[3-((S)-2,2-Dimethyl-cyclopentyl)-4-(5-fluoro-2-methoxy-pyridin-4-yl)-benzyloxy]-7-fluoro-1-methyl-indan-1-yl}-acetic acid or stereoisomer thereof] | –
9 | – | 100 to 1000 | 10 to 100 | COc1cc(-c2ccc(COc3ccc4c(c3)[C@@](C)(CC(=O)O)CCC4)cc2[C@H]2CCCC2(C)C)c(F)cn1 (single isomer, unassigned) [Example 48] | –
